Where two headings read alike, the source gives them in different places.
How the values were obtained:
[1] = system: differentiated Caco-2 cells; details: cited from earlier work
Protocol: From a physiological point of view, the dynamic equilibrium between the transport and degradation of bioactive peptides is crucially important. […] Indeed, the transport is more efficient and its degradation less extensive when P5 is incubated in the presence of peptides P3 and P7. It is important to note, however, that P5 and P7 have completely different behaviors, since the transport rate of P5 tested alone is 1.8 ...

[2] = system: LDLR on HepG2 cell surface; assay: In-cell Western (ICW) assay, LDLR localized on HepG2 cell surface; format: cell-based, human; details: PCSK9 alone 4 µg/mL, 2 h, mean ± SD
Protocol: For the experiments, a total of 3 × 10^4 HepG2 cells/well were seeded in 96-well plates. The following day, cells were washed with PBS and then starved overnight (O/N) in DMEM without FBS and antibiotics. After starvation, HepG2 cells were treated with 4.0 μg/mL PCSK9-WT and 4.0 μg/mL PCSK9 + peptides P5 and/or P5-met (50 µM) and vehicle (H2O) for 2 h at 37 °C under 5% CO2 atmosphere. Subsequently, they were fixed in 4% paraformaldehyde for 20 min at room temperature (RT). Cells were washed 5 times with 100 µL of PBS/well (each wash was for 5 min at RT) and the endogenous peroxides activity quenched adding 3% H2O2 for 20 min at RT. Non-specific sites were blocked with 100 µL/well of 5% bovine serum albumin (BSA, Sigma) in PBS for 1.5 h at RT. LDLR primary antibody solution (1:3000 in 5% BSA in PBS, 25 µL/well) was incubated O/N at +4 °C. Subsequently, the primary antibody solution was discarded and each sample was washed 5 times with 100 µL/well of PBS (each wash was for 5 min at RT). Goat anti-rabbit Ig-HRP secondary antibody solution (Santa Cruz) (1:6000 in 5% BSA in PBS, 50 µL/well), was added and incubated 1 h at RT. The secondary antibody solution was washed 5 times with 100 µL/well of PBS (each wash for 5 min at RT). Freshly prepared TMB substrate (Pierce, 100 µL/well) was added and the plate was incubated at RT until desired color was developed. The reaction was stopped with 2 M H2SO4 and then the absorbance at 450 nm was measured using the microplate reader Synergy H1 (Winooski, VT, USA). After the read, cells were stained by adding 1× Janus Green stain, incubating for 5 min at RT. The dye was removed and the sample washed 5 times with water. Afterward 100 µL 0.5 M HCl for well were added and incubated for 10 min. After 10 seconds shaking, the OD at 595 nm was measured using the microplate reader Synergy H1 (Winooski, VT, USA).

HepG2 cells = assay: Fluorescent LDL uptake by HepG2 cells; format: cell-based, human; details: PCSK9 alone 4 µg/mL, 2 h; mean ± SD
Protocol: HepG2 cells (3 × 10^4/well) were seeded in 96-well plates and kept in complete growth medium for 2 days before treatment. The third day, cells were washed with PBS and then starved overnight (O/N) in DMEM without FBS and antibiotics. After starvation, they were treated with 4.0 μg/mL PCSK9 and 4.0 μg/mL PCSK9 + P5 and P5-met peptides (50.0 µM), and vehicle (H2O) for 2 h with at 37 °C under 5% CO2 atmosphere. At the end of the treatment, the culture medium was replaced with 50 μL/well LDL-DyLight™ 550 working solution (Cayman Chemical Company, Ann Arbor, MI, USA) prepared in DMEM without FBS and antibiotics. The cells were additionally incubated for 2 h at 37 °C and then the culture medium was aspirated and replaced with PBS (100 μL/well). The degree of LDL uptake was measured using the Synergy H1 fluorescent plate reader (Winooski, VT, USA) (excitation and emission wavelengths 540 and 570 nm, respectively). Fluorescent LDL-uptake was finally assessed following optimized protocol.

Row | Substance | Transport rate across Caco-2 monolayer ([1]; in mixture) | Transport rate across Caco-2 monolayer ([1]; tested alone) | Decrease of LDLR protein levels on HepG2 cell surface versus the control cells [2] [%] | Reduction of ability of HepG2 cells to uptake fluorescent LDL versus untreated cells (HepG2 cells) [%]
1 | LTFPGSAED [Peptide P7, lupin peptide used in mixture with P5 in the transport experiments] | 1.98 ± 0.21 ng/(mL × min) | 4.2 ± 0.6 ng/(mL × min) | – | –
2 | PCSK9: proprotein convertase subtilisin/kexin type-9 protein added to HepG2 cells at 4.0 μg/mL | – | – | 24.7 ± 1.9 | 43.5 ± 9.7
